Here are results for two substances from US7256176B2, “Methods of modulating β cell function” (Joslin Diabetes Center, Inc., priority 2002, dated 2007).

Positions of bridges follow the written chain, without caps; N, C: chain ends.

Assay [1] deals with human MCH-2R (Homo sapiens, UniProt Q969V1). The settings on record: cited from earlier work.
Assay [2] deals with islets isolated from C57B1/6J mice. Put plainly: MCH stimulation of insulin secretion from overnight cultured isolated islets. It is filed as cell-based, mouse.
In assay [3] the test system is islets isolated from MCH over expressing mice. Put plainly: MCH treatment of islets from MCH over expressing mice (insulin secretion). The settings on record: n=2, control 2.8±0.36. It is filed as cell-based, mouse.
Assay [4] has as its system MAP kinase. Briefly: Effect of MCH on MAP kinase activity in islets or clonal β-cells. It is filed as cell-based, mouse. To be noted: islets or clonal β-cells treated with 1 μM MCH. The source says: To begin to examine the mechanism of action of MCH in the islets the effect of the peptide on MAP kinase activity was investigated.
In assay [5] the test system is rat adipocytes. The settings on record: cited from earlier work.
The test system of assay [6] is feeding. The settings on record: administered ICV; cited from earlier work.

Sequence of human MCH-2R (Q969V1 whole entry): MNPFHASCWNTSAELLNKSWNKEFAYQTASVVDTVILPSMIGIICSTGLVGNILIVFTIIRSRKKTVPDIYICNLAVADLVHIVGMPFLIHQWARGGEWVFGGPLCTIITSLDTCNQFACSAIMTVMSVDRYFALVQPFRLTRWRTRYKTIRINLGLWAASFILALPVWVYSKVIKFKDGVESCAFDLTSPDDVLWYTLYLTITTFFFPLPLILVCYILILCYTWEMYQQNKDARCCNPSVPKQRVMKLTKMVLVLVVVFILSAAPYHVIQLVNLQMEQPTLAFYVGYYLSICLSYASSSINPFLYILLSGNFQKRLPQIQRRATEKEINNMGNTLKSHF

On to “Arg-cyclo(S-S)(Cys-Met-Leu-Gly-Arg-Val-Tyr-Arg-Pro-Cys)”, for which the “activation of receptor compared with full-length human MCH” value in assay [1] is given as “about as effectively as full-length human MCH”.
Turning to “NH2-Asp-Phe-Asp-Met-Leu-Arg-Cys-Met-Leu-Gly-Arg-Val-Tyr-Arg-Pro-Cys-Trp-Gln-Val-COOH (H-DFDMLRCMLGRVYRPCWQV-OH; disulfide 7-16 (inferred); ends not checked) [MCH, cyclic 19 amino-acid peptide that is an important regulator of feeding behavior]”, the insulin secretion is on record as 2.1±0.11 % of insulin content in assay [2] (100 nM MCH, 30 min incubation, 11.1 mM glucose, n=3, p<0.02 vs control 0.86±0.22) and 11.4±0.49 pg/μg protein in assay [3]. For the same substance, the “insulin secretion, dependence on concentration and time” value in assay [2] (overnight cultured islets) is “concentration- and time-dependent insulin secretion”. Also, in assay [4], the “effect on MAP kinase levels” value is given as “No consistent effect”. The leptin secretion entry in assay [5] is on record as “stimulate leptin secretion”. Moreover, the feeding result in assay [6] is “acute increase in feeding”.
